Measured values: patent US8367873B2, “Phenyl-substituted bicyclooctane-1,3-dione derivatives” (Bayer Cropscience AG, priority 2008, dated 2013)

Columns and labels:
Type in all cases: in vivo
[1] = system: monocotylidonous and dicotylidonous weed and crop plants; assay: Herbicidal pre-emergence action (other test plants); settings: pre-emergence method, 80 g/ha, greenhouse, visual assessment vs untreated controls
Method in brief: (§1)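 Visual percent damage score (100% = dead plants, 0% = as untreated control) taken three weeks after pre-emergence treatment. Compounds were wettable powders sprayed onto covering soil over seeds in sandy loam, 600 l/ha water with 0.2% wetting agent, several application amounts; pots kept in greenhouse.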

Alopecurus myosuroides [2] = assay: Herbicidal post-emergence action; settings: post-emergence method, 80 g/ha
Method in brief: (§2)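 Visual % herbicidal effect vs untreated controls (100% = plants dead, 0% = as control), ~3 wk after spraying. Plants sown in sandy loam, greenhouse-grown, treated at one-leaf stage (2–3 wk post-sowing). WP formulations, 600 l/ha water + 0.2% wetting agent, various doses.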

Lolium multiflorum [3] = assay: Herbicidal post-emergence action; settings: post-emergence method, 80 g/ha
Method in brief: as §2

Echinocloa crus-galli [4] = assay: Herbicidal post-emergence action; settings: post-emergence method, 80 g/ha
Method in brief: as §2

Setaria viridis [5] = assay: Herbicidal post-emergence action; settings: post-emergence method, 80 g/ha
Method in brief: as §2

[6] = system: monocotylidonous and dicotylidonous weed and crop plants; assay: Herbicidal post-emergence action (other test plants); settings: post-emergence method, 80 g/ha
Method in brief: as §2

Alopecurus myosuroides [7] = assay: Herbicidal pre-emergence action; settings: pre-emergence method, 80 g/ha, greenhouse, visual assessment vs untreated controls
Method in brief: as §1

Lolium multiflorum [8] = assay: Herbicidal pre-emergence action; settings: pre-emergence method, 80 g/ha, greenhouse, visual assessment vs untreated controls
Method in brief: as §1

Echinocloa crus-galli [9] = assay: Herbicidal pre-emergence action; settings: pre-emergence method, 80 g/ha, greenhouse, visual assessment vs untreated controls
Method in brief: as §1

Setaria viridis [10] = assay: Herbicidal pre-emergence action; settings: pre-emergence method, 80 g/ha, greenhouse, visual assessment vs untreated controls
Method in brief: as §1

SMILES | herbicidal effect AVEFA [1] | herbicidal effect against ALOMY (Alopecurus myosuroides) (Alopecurus myosuroides [2]) | herbicidal effect against LOLMU (Lolium multiflorum) (Lolium multiflorum [3]) | herbicidal effect against ECHCG (Echinochloa crus-galli) (Echinocloa crus-galli [4]) | herbicidal effect against SETVI (Setaria viridis) (Setaria viridis [5]) | herbicidal effect against AVEFA (Avena fatua) [6] | herbicidal effect ALOMY (Alopecurus myosuroides [7]) | herbicidal effect LOLMU (Lolium multiflorum [8]) | herbicidal effect ECHCG (Echinocloa crus-galli [9]) | herbicidal effect SETVI (Setaria viridis [10])
CCOC1COC2(CC3C(=O)C(c4c(CC)cc(C)cc4CC)=C(OC(=O)C(C)C)C3C2)OC1 (stereo not drawn) [I-b-16] | 80% | 100% | 100% | 100% | 100% | 90% | 100% | 100% | 100% | 100%
CCc1cc(C)cc(CC)c1C1=C(OC(=O)C(C)C)C2CC3(CC2C1=O)OCC(OCc1ccccc1)CO3 (stereo not drawn) [I-b-17] | 80% | 90% | 100% | 100% | 90% | 90% | 90% | 100% | 100% | 90%
CCc1cc(C)cc(CC)c1C1=C(OC(C)=O)C2CC3(CC2C1=O)OCCO3 (stereo not drawn) [I-b-18] | 70% | 100% | 100% | 100% | 100% | 100% | 100% | 100% | 80% | 70%
CCc1cc(C)cc(CC)c1C1=C(OC(=O)C(C)(C)C)C2CC3(CC2C1=O)OCCCO3 (stereo not drawn) [I-b-22] | 70% | 100% | 100% | 100% | 100% | 100% | 100% | 100% | 100% | 80%
CCc1cc(C)cc(CC)c1C1=C(OC(C)=O)C2CC3(CC2C1=O)OCCCO3 (stereo not drawn) [I-b-23] | 70% | 100% | 100% | 100% | 100% | 100% | 90% | 100% | 100% | 50%
CCC(=O)OC1=C(c2c(CC)cc(C)cc2CC)C(=O)C2CC3(CC12)OCCCO3 (stereo not drawn) [I-b-24] | 70% | 100% | 100% | 100% | 100% | 100% | 70% | 100% | 100% | 40%
CCc1cc(C)cc(CC)c1C1=C(OC(=O)C(C)(C)CCl)C2CC3(CC2C1=O)OCCCO3 (stereo not drawn) [I-b-25] | 70% | 100% | 100% | 100% | 100% | 100% | 90% | 100% | 100% | 60%
CCc1cc(C)cc(CC)c1C1=C(OC(=O)COC)C2CC3(CC2C1=O)OCCCO3 (stereo not drawn) [I-b-28] | 50% | 100% | 100% | 100% | 100% | 100% | 90% | 100% | 100% | 70%
CCc1cc(C)cc(CC)c1C1=C(OC(=O)C(C)(C)CC)C2CC3(CC2C1=O)OCCCO3 (stereo not drawn) [I-b-30] | 70% | 20% | 100% | 100% | 90% | 100% | 100% | 100% | 100% | 90%
C=C1CC2C(=O)C(c3c(C)cc(C)cc3C)=C(OC(=O)C(C)(C)C)C2C1 (stereo not drawn) [I-b-37] | 40% | 0% | 70% | 90% | 90% | 0% | 90% | 70% | 70% | 70%
C=C1CC2C(=O)C(c3c(C)cc(C)cc3C)=C(OC(=O)C(C)C)C2C1 (stereo not drawn) [I-b-38] | 70% | 40% | 70% | 90% | 90% | 0% | 80% | 60% | 80% | 80%
Cc1cc(C)c(C2=C(OC(=O)C(C)C)C3CC4(CC3C2=O)OCCO4)c(C)c1 (stereo not drawn) [I-b-39] | 50% | 60% | 100% | 100% | 90% | 20% | 60% | 80% | 10% | 0%
Cc1cc(C)c(C2=C(OC(=O)C(C)(C)C)C3CC4(CC3C2=O)OCCCCO4)c(C)c1 (stereo not drawn) [I-b-40] | 50% | 40% | 100% | 90% | 80% | 20% | 90% | 100% | 50% | 30%
Cc1cc(C)c(C2=C(OC(=O)C(C)C)C3CC4(CC3C2=O)OCCCCO4)c(C)c1 (stereo not drawn) [I-b-41] | 40% | 40% | 100% | 100% | 80% | 0% | 50% | 100% | 0% | 50%
Cc1cc(C)c(C2=C(OC(=O)C(C)C)C3CC4(CC3C2=O)OCC(C)CO4)c(C)c1 (stereo not drawn) [I-b-43] | 40% | 100% | 100% | 90% | 100% | 80% | 90% | 90% | 20% | 60%
C=C1CC2C(=O)C(c3c(C)cc(C)cc3OC)=C(OC(=O)C(C)C)C2C1 (stereo not drawn) [I-b-62] | 40% | 30% | 90% | 100% | 90% | 0% | 50% | 70% | 70% | 80%
COc1cc(C)cc(C)c1C1=C(OC(=O)C(C)C)C2CC3(CC2C1=O)OCCCO3 (stereo not drawn) [I-b-64] | 50% | 100% | 100% | 100% | 100% | 100% | 60% | 100% | 0% | 90%
COc1cc(C)cc(C)c1C1=C(OC(=O)C(C)C)C2CC3(CC2C1=O)OCCO3 (stereo not drawn) [I-b-65] | 70% | 90% | 100% | 100% | 100% | 90% | 60% | 100% | 90% | 70%
